Structures can show the parent of a compound that is named as a salt. Where two headings read alike, the source gives them in different places.
Key:
[1] = molecular target: PDE 4 (phosphodiesterase IV); experiment: PDE 4 inhibiting effect (3H-cAMP hydrolysis, PDE 4 active fraction from Balb/c mouse liver); format: biochemical; conditions: PDE 4 fraction from Balb/c mice liver, 0.064 μM cAMP, 2 hours at 25° C.; read-out: PDE4 IC50
In short: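 Activity was measured as 3H-cAMP hydrolysis, with Sephadex-QAE added after the reaction. The enzyme was a PDE4-active fraction from 12-week male Balb/c mouse liver, taken from the ultracentrifuged soluble fraction by DEAE sepharose chromatography (0.05-1 M sodium acetate gradient, pH 6.5 buffer).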

[2] = molecular target: PDE 7 (phosphodiesterase VII) (Homo sapiens (Human), UniProt Q13946); experiment: PDE 7 inhibiting effect (3H-cAMP hydrolysis, PDE 7 active fraction from MOLT-4 cells); format: biochemical; conditions: read-out: PDE7 IC50
In short: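 ³H-cAMP hydrolysis by a PDE7-active fraction was followed, and the reaction was worked up with a Sephadex-QAE suspension (10 mM HEPES-Na, pH 7.0). Enzyme came from MOLT-4 cell soluble extract (pH 7.5 Tris buffer, 100,000×G supernatant), fractionated by HiTrap Q anion exchange with a 0–0.8 M NaCl gradient.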

[3] = PDE 7 fraction from MOLT-4 cells, 0.064 μM cAMP, 10 μM rolipram, 2 hours at 25° C.

Sequence of PDE 7 (phosphodiesterase VII) (Q13946 whole entry): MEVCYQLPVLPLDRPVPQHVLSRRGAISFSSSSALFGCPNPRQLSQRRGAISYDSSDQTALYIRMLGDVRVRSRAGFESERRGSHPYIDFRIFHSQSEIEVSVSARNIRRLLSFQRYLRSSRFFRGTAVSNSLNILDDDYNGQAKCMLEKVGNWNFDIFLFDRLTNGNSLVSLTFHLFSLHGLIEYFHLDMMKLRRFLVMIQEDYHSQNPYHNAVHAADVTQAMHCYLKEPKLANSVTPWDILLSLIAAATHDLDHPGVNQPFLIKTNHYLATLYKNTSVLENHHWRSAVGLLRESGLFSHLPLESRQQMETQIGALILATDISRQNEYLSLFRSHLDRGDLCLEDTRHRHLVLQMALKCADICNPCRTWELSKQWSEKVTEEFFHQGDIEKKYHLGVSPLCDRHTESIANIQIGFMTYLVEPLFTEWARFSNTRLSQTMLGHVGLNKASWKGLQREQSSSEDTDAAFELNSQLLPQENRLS

SMILES | IC50 [1] | IC50 [2, 3] | IC50 [2]
Cc1nn(C2CCCCC2)c2sc(C(=O)Nc3ccc(N4CCN(C)CC4)c(F)c3)cc12 [Example 155, 1-Cyclohexyl-N-[3-fluoro-4-(4-methyl-1-piperazinyl)phenyl]-3-methyl-1H-thieno[2,3-c]pyrazole-5-carboxamide methanesulfonic acid salt] | 1500 nM | 10 nM | 
Cc1nn(C2CCCCC2)c2sc(C(=O)Nc3ccc(N4CCC(O)CC4)c(Cl)c3)cc12 [Example 162, N-[3-Chloro-4-(4-hydroxy-piperidinyl)phenyl]-1-cyclohexyl-3-methyl-1H-thieno[2,3-c]pyrazole-5-carboxamide] | 2000 nM | 70 nM | 
CNC1CCN(c2ccc(NC(=O)c3cc4c(C)nn(C5CCCCC5)c4s3)cc2F)CC1 [Example 163, 1-Cyclohexyl-N-{3-fluoro-4-[4-(methylamino)-1-piperidinyl]phenyl}-3-methyl-1H-thieno[2,3-c]pyrazole-5-carboxamide] | 900 nM | 14 nM | 
CNC1CCN(c2ccc(NC(=O)c3cc4c(C)nn(C5CCCCC5)c4s3)cc2Cl)CC1 [Example 165, N-{3-Chloro-4-[4-(methylamino)-1-piperidinyl]phenyl}-1-cyclohexyl-3-methyl-1H-thieno[2,3-c]pyrazole-5-carboxamide] | 650 nM | 20 nM | 
Cc1nn(C2CCCCC2)c2sc(C(=O)N[C@H]3CC[C@H](N4CCN(C)CC4)CC3)cc12 [Example 166, 1-Cyclohexyl-3-methyl-N-[trans-4-(4-methyl-1-piperazinyl)-cyclohexyl]-1H-thieno[2,3-c]pyrazole-5-carboxamide] | 1300 nM | 16 nM | 
Cc1nn(C2CCCCC2)c2sc(C(=O)N[C@H]3CC[C@H](N4CCCN(C)CC4)CC3)cc12 [Example 167, 1-Cyclohexyl-3-methyl-N-[trans-4-(4-methyl-1,4-diazepam-1-yl)-cyclohexyl]-1H-thieno[2,3-c]pyrazole-5-carboxamide] | 1000 nM | 15 nM | 
COC1CCN([C@H]2CC[C@H](NC(=O)c3cc4c(C)nn(C5CCCCC5)c4s3)CC2)CC1 [Example 168, 1-Cyclohexyl-N-[trans-4-(4-methoxyl-1-piperidinyl)cyclohexyl]-3-methyl-1H-thieno[2,3-c]pyrazole-5-carboxamide] | 1500 nM | 22 nM | 
Cc1nn(C2CCCCC2)c2sc(C(=O)N[C@H]3CC[C@H](N4CCCNCC4)CC3)cc12 [Example 170, 1-Cyclohexyl-N-[trans-4-(1,4-diazepam-1-yl)cyclohexyl]-3-methyl-1H-thieno[2,3-c]pyrazole-5-carboxamide] | 1300 nM | 22 nM | 
CC(=O)N1CCCN([C@H]2CC[C@H](NC(=O)c3cc4c(C)nn(C5CCCCC5)c4s3)CC2)CC1 [Example 171, N-[trans-4-(4-Acetyl-1,4-diazepam-1-yl)cyclohexyl]-1-cyclohexyl-3-methyl-1H-thieno[2,3-c]pyrazole-5-carboxamide] | 1700 nM | 37 nM | 
COCCN(C)[C@H]1CC[C@H](NC(=O)c2cc3c(C)nn(C4CCCCC4)c3s2)CC1 [Example 172, 1-cyclohexyl-N-{trans-4-[(2-methoxyethyl)(methyl)amino]-cyclohexyl}-3-methyl-1H-thieno[2,3-c]pyrazole-5-carboxamide] | 9400 nM | 48 nM | 
Cc1nn(C2CCCCC2)c2sc(C(=O)N[C@H]3CC[C@H](N4CCC(O)CC4)CC3)cc12 [Example 176, 1-Cyclohexyl-N-[trans-4-(4-hydroxy-1-piperidinyl)cyclohexyl]-3-methyl-1H-thieno[2,3-c]pyrazole-5-carboxamide] | 1700 nM | 20 nM | 
Cc1nn(C2CCCCC2)c2sc(C(=O)N[C@H]3CC[C@H](N4C[C@@H](C)O[C@@H](C)C4)CC3)cc12 [Example 177, 1-Cyclohexyl-N-{trans-4-[(2R,6S)-2,6-dimethylmorpholinyl]-cyclohexyl}-3-methyl-1H-thieno[2,3-c]pyrazole-5-carboxamide] | 1600 nM | 13 nM | 
CNC1CCN([C@H]2CC[C@H](NC(=O)c3cc4c(C)nn(C5CCCCC5)c4s3)CC2)CC1 [Example 179, 1-Cyclohexyl-3-methyl-N-{trans-4-[4-(methylamino)-1-piperidinyl]-cyclohexyl}-1H-thieno[2,3-c]pyrazole-5-carboxamide] | 750 nM | 3.1 nM | 
CC(=O)N(C)C1CCN([C@H]2CC[C@H](NC(=O)c3cc4c(C)nn(C5CCCCC5)c4s3)CC2)CC1 [Example 180, N-(trans-4-{4-[Acetyl(methyl)amino]-1-piperidinyl}cyclohexyl)-1-cyclohexyl-3-methyl-1H-thieno[2,3-c]pyrazole-5-carboxamide] | 1400 nM | 10 nM | 
Cc1nn(C2CCCCC2)c2sc(C(=O)N[C@H]3CC[C@H](N4CCC(N(C)C)CC4)CC3)cc12 [Example 181, 1-Cyclohexyl-N-{trans-4-[4-(dimethylamino)-1-piperidinyl]-cyclohexyl}-3-methyl-1H-thieno[2,3-c]pyrazole-5-carboxamide] | 860 nM | 8.6 nM | 
Cc1nn(C2CCCCC2)c2sc(C(=O)N[C@H]3CC[C@H](N4CCC(N)CC4)CC3)cc12 [Example 184, N-[trans-4-(4-Amino-1-piperidinyl)cyclohexyl]-1-cyclohexyl-3-methyl-1H-thieno[2,3-c]pyrazole-5-carboxamide] | 1100 nM | 6.8 nM | 
Cc1nn(C2CCCCC2)c2sc(C(=O)N[C@H]3CC[C@H](N4CCNCC4)CC3)cc12 [Example 188, 1-Cyclohexyl-3-methyl-N-[trans-4-(1-piperazinyl)cyclohexyl]-1H-thieno[2,3-c]pyrazole-5-carboxamide] | 700 nM | 6.5 nM | 
CC(=O)N1CCN([C@H]2CC[C@H](NC(=O)c3cc4c(C)nn(C5CCCCC5)c4s3)CC2)CC1 [Example 190, N-[trans-4-(4-Acetyl-1-piperazinyl)cyclohexyl]-1-cyclohexyl-3-methyl-1H-thieno[2,3-c]pyrazole-5-carboxamide] | 1700 nM | 3.5 nM | 
Cc1nn(C2CCCCC2)c2sc(C(=O)Nc3ccc(N4CCCN(C)CC4)c(F)c3)cc12 [Example 191, 1-Cyclohexyl-N-[3-fluoro-4-(4-methyl-1,4-diazepam-1-yl)phenyl]-3-methyl-1H-thieno[2,3-c]pyrazole-5-carboxamide hemifumarate] | 980 nM |  | 8.9 nM
Cc1nn(C2CCOCC2)c2sc(C(=O)Nc3ccc(N4CCN(C)CC4)cc3)cc12 [Example 196, 3-Methyl-N-[4-(4-methyl-1-piperazinyl)phenyl]-1-tetrahydro-2H-pyran-4-yl-1H-thieno[2,3-c]pyrazole-5-carboxamide] | 7500 nM | 90 nM | 
Cc1nn(C2CCOCC2)c2sc(C(=O)Nc3ccc(N4CCN(C)CC4)c(F)c3)cc12 [Example 197, N-[3-Fluoro-4-(4-methyl-piperazinyl)phenyl]-3-methyl-1-tetrahydro-2H-pyran-4-yl-1H-thieno[2,3-c]pyrazole-5-carboxamide] | 4400 nM | 79 nM | 
Cc1nn(C2CCCCC2)c2sc(C(=O)Nc3ccc(CN4CCOCC4)cc3)cc12 [Example 199, 1-Cyclohexyl-3-methyl-N-[4-(4-morpholinylmethyl)phenyl]-1H-thieno[2,3-c]pyrazole-5-carboxamide fumarate] | 5800 nM | 56 nM | 
Cc1nn(C2CCCCC2)c2sc(C(=O)Nc3ccc(CCN(C)C)cc3)cc12 [Example 200, 1-Cyclohexyl-N-{4-[(dimethylamino)ethyl]phenyl}-3-methyl-1H-thieno[2,3-c]pyrazole-5-carboxamide] | 1900 nM | 16 nM | 
Cc1nn(C2CCCCC2)c2sc(C(=O)Nc3ccc(CCN4CCOCC4)cc3)cc12 [Example 201, 1-Cyclohexyl-3-methyl-N-{4-[2-(4-morpholinyl)ethyl]phenyl}-1H-thieno[2,3-c]pyrazole-5-carboxamide] | 2200 nM | 18 nM | 
Cc1nn(C2CCCCC2)c2sc(C(=O)Nc3ccc(CN4C(=O)CN(C)C4=O)cc3)cc12 [Example 202, 1-Cyclohexyl-methyl-N-{4-[(3-methyl-2,5-dioxo-1-imidazolidinyl)-methyl]phenyl}-1H-thieno[2,3-c]pyrazole-5-carboxamide] | 2400 nM | 33 nM | 
Cc1nn(C2CCCCC2)c2sc(C(=O)Nc3ccc(N4C(=O)CN(C)C4=O)cc3)cc12 [Example 203, 1-Cyclohexyl-3-methyl-N-[4-(3-methyl-2,5-dioxo-1-imidazolidinyl)-phenyl]-1H-thieno[2,3-c]pyrazole-5-carboxamide] | 1400 nM | 6.1 nM | 
Cc1nn(C2CCCCC2)c2sc(C(=O)N[C@H]3CC[C@H](C(=O)O)CC3)cc12 [Example 205, 4-{[(1-Cyclohexyl-3-methyl-1H-thieno[2,3-c]pyrazol-5-yl)carbonyl]-amino}cyclohexane carboxylic acid] | 14000 nM | 91 nM | 
Cc1nn(C2CCCCC2)c2sc(C(=O)N[C@H]3CC[C@H](CO)CC3)cc12 [Example 206, 1-Cyclohexyl-N-[4-(hydroxymethyl)cyclohexyl]-3-methyl-1H-thieno[2,3-c]pyrazole-5-carboxamide] | 3800 nM | 50 nM | 
Cc1nn(C2CCCCC2)c2sc(C(=O)N[C@H]3CC[C@H](C(=O)N(C)C)CC3)cc12 [Example 208, 1-Cyclohexyl-N-{4-[(dimethylamino)carbonyl]cyclohexyl}-3-methyl-1H-thieno[2,3-c]pyrazole-5-carboxamide] | 3800 nM | 25 nM | 

From patent publication US8901315B2, “Thienopyrazole derivative having PDE7 inhibitory activity” (Daiichi Sankyo Company, Limited, priority 2004, dated 2014)
